Measurements published in patent US9023857B2, “Substituted 6-(2-aminobenzylamino)purine derivatives, their use as medicaments and preparations containing these compounds” (Univerzita Palackeho V Olomouci, priority 2009, dated 2015).
Entries after “also recorded” stand apart in the source; their conditions may differ.

What was measured:
CDK9/cyclin T = CDK9/cyclin T (Homo sapiens, UniProt P50750); assay: CDK inhibition assay, CDK9/cyclin T
[1] = test system: p53 protein in osteosarcoma cell line HOS (mut p53); assay: p53 protein expression in HOS cells (immunoblotting); format: cell-based, human; details: HOS (mutant p53), 5 μM, 6, 12 and 24 hrs
Experimental: (§1) (a) DO-1, DO-2 and 1801 monoclonal antibodies recognise the N-terminal region of p53 protein, monoclonal antibodies DO-11 and DO-12 recognise different epitopes in the core domain of p53 protein, monoclonal antibodies Bp53-10 and Pab421 recognise the C-terminal region of p53 protein. (b) Monoclonal antibody 118 recognises p21^WAF1.
(§2) For direct immunoblotting, total cellular protein lysates were prepared by harvesting cells in hot Laemmli electrophoresis sample buffer. Proteins were then separated by SDS-polyacrylamide gel electrophoresis (SDS-PAGE) on 10% gel and transferred onto a nitrocellulose membrane in Bio.Rad Mini Trans-Blott Electrophoretic Transfer Cell for 2 hrs at 4° C. applying 150 mA in transfer buffer ([…], 190 mM glycine and 20% methanol). Prestained molecular weight markers (Bio-Rad) were run in parallel. […]
(§3) First, we determined appropriate concentration of 103 and 105 for our experiments. The MCF-7 (wt p53) cells were treated for 12 hrs with increasing concentrations of 105 ranging from 1 to 100 μM and analysed for p53 protein expression using monoclonal antibody DO-1 (FIG. 3A). […] We analysed the expression of p53 protein in MCF-7 (wt p53), BT549 (mut p53) and BT474 (mut p53) breast cancer cell lines, in HT29 (mut p53) colorectal cancer cell line and in ostaosarcoma cell line HOS (mut p53). […]

[2] = test system: pRb (Ser780, Ser807, Thr821) in MCF7 cells; assay: Immunoblot analysis of pRb phosphorylation in MCF7 cells; format: cell-based, human; details: MCF7 cells treated for 24 h, immunoblot (FIG. 2)
Experimental: Cell were detached with rubber policeman and washed three times with ice-cold PBS and lysed in buffer (50 mM Tris, pH 7.4, 250 mM NaCl, 5 mM EDTA, 50 mM NaF, 1 mM Na3VO4, 1% Nonidet P40) containing mixture of protease and phosphatase inhibitors (Sigma-Aldrich St Louis, Mo., USA). 20 μg of total proteins were separated by SDS-polyacrylamide gel electrophoresis (SDS-PAGE) on 8% or 10% gels and transferred onto nitrocellulose membranes. Membranes were blocked in 5% milk and 0.1% Tween 20 in PBS and probed overnight with specific monoclonal antibodies or rabbit polyclonal sera. Primary antibodies specific for RNA polymerase II (all from Santa Cruz Biotechnology, California, USA) included: (i) N-20 used at 1 μg/ml, (ii) H14, specific for form phosphorylated at phosphoserine 5, used at 6 μg/ml and (iii) H5, specific for form phosphorylated at phosphoserine 2 used at 4 μg/ml. Additional primary mAb used in immunblots included (iv) anti-p53 (DO-1, in house) used at 1 μg/ml, (v) anti-p21^WAF1 (118, in house), used at 1 μg/ml), (vi) anti-actin (A-2066, Sigma-Aldrich St Louis, Mo., USA) used at 1 μg/ml, (vii) anti-T-antigen (419, in house), used at 1 μg/ml. All primary antibodies were diluted in PBS containing 5% powdered milk; 0.1% Tween 20. […]

[3] = test system: p53 protein in BT549 (mut p53) breast cancer cell line; assay: p53 protein expression in BT549 cells (immunoblotting); format: cell-based, human; details: BT549 (mutant p53), 5 μM, 6, 12 and 24 hrs
Experimental: as §1, §2, §3

[4] = test system: P388D1 leukemia transplanted intraperitoneally; assay: In vivo anticancer activity, survival model of P388D1 leukemia; details: DBA-2 mice, orally twice daily 250 mg/kg, Days 1-3 and 7-9
Experimental: DBA-2 mice were used as a host. One day following the leukemia transplantation, treatment with 105 was initiated. […] Survival analysis of treated animals (10 mice/group) was preformed in comparison with vehicle treated mice using Kaplan-Meier method and the significance was evaluated by the log-rank test. Body weight of experimental animals was evaluated in parallel in order to reflect toxicity and efficacy of therapy. Comparative analysis of body weight was performed using […].

[5] = test system: p53 protein in MCF-7 cells expressing wild-type p53; assay: Induction of p53 protein in MCF-7 cells (immunoblotting); format: cell-based, human
Experimental: as §1
For direct immunoblotting, total cellular protein lysates were prepared by harvesting cells in hot Laemmli electrophoresis sample buffer. Proteins were then separated by SDS-polyacrylamide gel electrophoresis (SDS-PAGE) on 10% gel and transferred onto a nitrocellulose membrane in Bio.Rad Mini Trans-Blott Electrophoretic Transfer Cell for 2 hrs at 4° C. applying 150 mA in transfer buffer ([…], 190 mM glycine and 20% methanol). Prestained molecular weight markers (Bio-Rad) were run in parallel. The blotted membranes were blocked in 5% milk and 0.1% Tween 20 in PBS for 2 hrs and probed overnight with monoclonal antibodies. After washing 3 times in PBS plus 0.1% Tween 20, peroxidase conjugated rabbit anti-mouse immunoglobulin antiserum (Dako, Denmark) diluted 1:1000 was used as the secondary antibody. To visualise peroxidase activity, ECL reagents from […] were used according to the manufacturer instructions.
First, we determined appropriate concentration of 103 and 105 for our experiments. The MCF-7 (wt p53) cells were treated for 12 hrs with increasing concentrations of 105 ranging from 1 to 100 μM and analysed for p53 protein expression using monoclonal antibody DO-1 (FIG. 3A). […] As shown at FIG. 3C the level of protein expression induced by 5 μM 105 was not substantially different from expression induced by 50 μM concentration was selected for further experiments. Second, the periods of time 6, 12 and 24 hrs were chosen, since the level of protein expression reached a steady state. We analysed the expression of p53 protein in MCF-7 (wt p53), BT549 (mut p53) and BT474 (mut p53) breast cancer cell lines, in HT29 (mut p53) colorectal cancer cell line and in ostaosarcoma cell line HOS (mut p53). […] No induction of p53 was observed following exposure of BT549 and HOS cell lines, expressing mutant p53, to 5 μM 105 for 6, 12 and 24 hrs. No correlation was observed between the sensitivity of cell lines to 105 and the presence of wild-type or mutant p53.

[6] = test system: p53-responsive reporter pRGCΔfoslacZ in murine fibroblasts T22lacZ; assay: p53-dependent transcriptional activity, β-galactosidase reporter in T22lacZ cells; format: cell-based; details: 5 μM
HAd4 = assay: Plaque number reduction assay, HAd4 on A549; format: cell-based, Human adenovirus type 4 (HAdV-4) strain RI-6
SV40 large T-antigen = format: cell-based
[7] = test system: promyelocytic leukemia HL 60; assay: In vitro cytotoxic activity (Calcein AM, 72 hours), HL 60; details: Homo sapiens, HL-60, 72 h, read-out: Cytotoxicity IC50 HL60
HSV-1-deltaTK = assay: Plaque number reduction assay, HSV-1-deltaTK on HFFF; format: cell-based; details: HSV-1 thymidine kinase (TK) deletion mutant on HFFF
IV = format: cell-based, Influenza Virus H1N1 strain A/PR/8/34; details: MDCK cells
[8] = test system: human malignant melanoma G 361; assay: In vitro cytotoxic activity (Calcein AM, 72 hours), G 361; details: G-361, 72 h, read-out: Cytotoxicity IC50 G361
[9] = In vitro cytotoxic activity (Calcein AM, 72 hours), BJ; details: human, BJ normal fibroblasts

CDK9/cyclin T, sequence (P50750 whole entry, species assumed): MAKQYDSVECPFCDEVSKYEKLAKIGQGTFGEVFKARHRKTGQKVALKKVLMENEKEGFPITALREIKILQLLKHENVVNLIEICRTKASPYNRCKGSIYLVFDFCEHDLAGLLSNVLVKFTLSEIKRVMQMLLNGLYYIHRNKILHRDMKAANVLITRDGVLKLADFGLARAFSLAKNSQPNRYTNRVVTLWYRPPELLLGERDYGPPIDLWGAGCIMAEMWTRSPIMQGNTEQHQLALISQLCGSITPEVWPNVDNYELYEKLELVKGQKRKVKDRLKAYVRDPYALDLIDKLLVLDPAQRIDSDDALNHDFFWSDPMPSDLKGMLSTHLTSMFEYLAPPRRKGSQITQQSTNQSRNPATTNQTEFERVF
CDK9/cyclin T, sequence (O60563 whole entry partner, species assumed): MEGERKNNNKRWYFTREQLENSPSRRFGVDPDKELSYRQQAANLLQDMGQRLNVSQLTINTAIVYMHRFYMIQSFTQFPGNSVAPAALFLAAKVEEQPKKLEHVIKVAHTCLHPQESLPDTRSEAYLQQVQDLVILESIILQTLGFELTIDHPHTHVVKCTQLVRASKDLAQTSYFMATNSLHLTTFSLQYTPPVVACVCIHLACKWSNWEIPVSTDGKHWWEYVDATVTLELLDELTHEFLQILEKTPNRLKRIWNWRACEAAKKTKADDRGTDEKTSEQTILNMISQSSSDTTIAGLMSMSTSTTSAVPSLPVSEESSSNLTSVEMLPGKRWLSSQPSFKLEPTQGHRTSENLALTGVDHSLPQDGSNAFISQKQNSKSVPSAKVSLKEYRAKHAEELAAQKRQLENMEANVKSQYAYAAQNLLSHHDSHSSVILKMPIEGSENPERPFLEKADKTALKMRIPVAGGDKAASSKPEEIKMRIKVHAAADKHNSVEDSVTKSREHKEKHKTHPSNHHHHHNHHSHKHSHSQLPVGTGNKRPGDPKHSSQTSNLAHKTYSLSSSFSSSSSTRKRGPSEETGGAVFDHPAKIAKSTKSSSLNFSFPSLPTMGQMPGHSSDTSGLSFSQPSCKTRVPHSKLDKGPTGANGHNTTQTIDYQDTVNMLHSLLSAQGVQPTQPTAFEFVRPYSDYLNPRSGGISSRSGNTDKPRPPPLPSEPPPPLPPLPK

CCC(CO)Nc1nc(NCc2ccccc2N)c2ncn(C(C)C)c2n1 (stereo not shown) [Compound 105, 2-({6-[(2-aminobenzyl)amino]-9-isopropyl-9H-purin-2-yl}amino)butan-1-ol]
IC50 (CDK9/cyclin T): 0.005 µM | induction of p53 [1]: No induction | phosphorylation of pRb at Ser780, Ser807 and Thr821 [2]: Reduced phosphorylation | induction of p53 [3]: No induction | body weight of treated animals [4]: reducing body weight | mean survival time [4]: 15.4 days | survival analysis (Kaplan-Meier, log-rank) ([4]; P=0.0409 versus vehicle): significantly better survival | tumor suppressor p53 level ([5]; MCF7 cells treated for 24 h, immunoblot (FIG. 2)): Induction | concentration shown to affect the level of p53 protein ([5]; MCF-7 (wt p53), 12 hrs, antibody DO-1): 2 to 5 µM | accumulation of wild-type p53 ([5]; MCF-7, 5 μM, 6, 12 and 24 hrs): significant accumulation | time at which induction of p53 protein was apparent ([5]; MCF-7 cells): 4 h | blue-coloured cells (β-galactosidase activity, X-gal substrate) [6]: about 25% | inhibition of virus replication (in words) (HAd4): inhibited HAd4 replication; also recorded: profound effect | level of large T-antigen (SV40 large T-antigen): reduced level | IC50 [7]: 6.7 µM | inhibition of virus replication (in words) (HSV-1-deltaTK): remained sensitive | inhibition of virus replication (in words) (IV): ineffective | IC50 [8]: 8 µM | IC50 at 72 h [9]: > 167 µM
